Results on 15 compounds are retold here after US8106055B2, “Substituted amide compounds” (Gruenenthal GmbH, priority 2007, dated 2012).

Like-named read-outs stand apart in the source and are kept apart here.

For test [1], the target named is T1, human bradykinin 1 receptor (B1R) (Homo sapiens, UniProt P46663).
T1 construct: expressed in transfected cells; host or cells: CHO K1 cells
T1 sequence (P46663 1-353): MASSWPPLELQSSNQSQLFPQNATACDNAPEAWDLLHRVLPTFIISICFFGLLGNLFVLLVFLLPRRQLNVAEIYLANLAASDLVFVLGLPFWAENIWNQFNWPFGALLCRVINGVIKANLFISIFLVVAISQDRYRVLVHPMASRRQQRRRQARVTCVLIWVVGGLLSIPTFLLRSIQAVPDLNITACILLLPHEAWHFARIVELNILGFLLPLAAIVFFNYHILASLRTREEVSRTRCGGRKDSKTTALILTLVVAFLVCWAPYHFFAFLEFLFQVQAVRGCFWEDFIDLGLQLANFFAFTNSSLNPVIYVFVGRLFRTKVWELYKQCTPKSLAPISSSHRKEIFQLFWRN
Nature of the test: Functional investigation on the human bradykinin 1 receptor (B1R), Ca2+ FLIPR assay in CHO K1 hB1R cells. The test is classed as cell-based. The settings on record: CHO-K1, B1R antagonism human, test substance 10 μM, read-out: B1R Ant. h [10 μM] % Inhibition. In a few lines: (§1)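 Fluo-4 Ca2+ readout, peak fluorescence. Stable CHO K1 transfectants; compound pre-incubated 10-20 min, then EC80 agonist—Lys-Des-Arg9-BK for hB1R, Des-Arg9-BK for rB1R. % inhibition vs maximal inhibition; IC50 from multiple concentrations, duplicate/triplicate, ≥2 independent runs.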

Test [2] deals with T2, human μ opiate receptor (Homo sapiens, UniProt P35372).
T2 construct: purchased PerkinElmer Life Sciences, Zaventem, Belgium RB-HOM; host or cells: CHO-K1 cells (membrane preparation)
Nature of the test: Affinity for the human μ opiate receptor ([3H]-naloxone displacement, CHO-K1 receptor membrane preparation, SPA). The format is binding. The settings on record: 1.5 h, Table 3, to be read in the same way as Table 1; test concentration 1 μM; read-out: μ. The protocol: Binding data of the compounds on the μ opioid receptor and data on the inhibition of reuptake of serotonin (5-HT) are given in Table 1. The data for the μ receptor were measured at a test concentration of 1 μM, and those for the serotonin reuptake at 10 μM. The values are stated in % inhibition.
Investigation of the Activity of the Compounds of the Invention Method for Determining the Affinity for the Human μ Opiate Receptor
The receptor affinity for the human p opiate receptor is determined in a homogeneous set-up in microtitre plates. For this, dilution series of the substances to be tested are incubated with a receptor membrane preparation (15-40 μg of protein/250 μl of incubation batch) of CHO-K1 cells which express the human p opiate receptor (RB-HOM receptor membrane preparation from PerkinElmer Life Sciences, Zaventem, Belgium) in the presence of 1 nmol/l of the radioactive ligand [^3H]-naloxone (NET719, PerkinElmer Life Sciences, Zaventem, Belgium) and 1 mg of WGA-SPA-Beads (wheat germ agglutinin SPA beads from Amersham/Pharmacia, Freiburg, Germany) in a total volume of 250 μl for 90 minutes at room temperature. 50 mmol/l of Tris-HCl supplemented with 0.06% of bovine serum albumin is used as the incubation buffer. 100 μmol/l of naloxone are additionally added for determination of the non-specific binding. After the end of the ninety-minute incubation time, the microtitre plates are centrifuged for 20 minutes at 1,000 g and the radioactivity is measured in a β-counter (Microbeta-Trilux, PerkinElmer Wallac, Freiburg, Germany). The percentage displacement of the radioactive ligand from its binding to the human p opiate receptor is determined at a concentration of the test substances of 1 μmol/l and stated as the percentage inhibition of the specific binding. Starting from the percentage displacement by various concentrations of the test substances, IC50 inhibitory concentrations which cause a 50 percent displacement of the radioactive ligand are calculated. By conversion by means of the Cheng-Prusoff relationship, Ki values for the test substances are obtained.

In test [3] the target is T3, bradykinin 1 receptor (B1R) of the rat (Rattus norvegicus, UniProt P97583).
T3 construct: expressed in transfected cells; host or cells: CHO K1 cells
T3 sequence (P97583 1-337): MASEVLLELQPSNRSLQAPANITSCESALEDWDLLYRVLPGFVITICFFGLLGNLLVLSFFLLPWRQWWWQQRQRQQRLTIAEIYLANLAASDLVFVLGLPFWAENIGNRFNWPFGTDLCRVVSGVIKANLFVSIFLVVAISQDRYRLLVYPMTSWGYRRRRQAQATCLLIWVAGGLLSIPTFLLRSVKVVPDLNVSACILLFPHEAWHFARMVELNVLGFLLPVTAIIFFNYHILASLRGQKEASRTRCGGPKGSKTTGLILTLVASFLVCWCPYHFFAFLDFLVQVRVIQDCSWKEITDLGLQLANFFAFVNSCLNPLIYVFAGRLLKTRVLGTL
Nature of the test: Functional investigation on the rat bradykinin 1 receptor (B1R), Ca2+ FLIPR assay in CHO K1 rB1R cells. The test is classed as cell-based. The settings on record: CHO-K1, B1R antagonism rat, test substance 10 μM, read-out: B1R Ant. r [10 μM] % Inhibition. The method, boiled down: as §1

Setting [4] is: % inhibition compared with the maximum achievable inhibition.

T2 sequence (P35372 whole entry): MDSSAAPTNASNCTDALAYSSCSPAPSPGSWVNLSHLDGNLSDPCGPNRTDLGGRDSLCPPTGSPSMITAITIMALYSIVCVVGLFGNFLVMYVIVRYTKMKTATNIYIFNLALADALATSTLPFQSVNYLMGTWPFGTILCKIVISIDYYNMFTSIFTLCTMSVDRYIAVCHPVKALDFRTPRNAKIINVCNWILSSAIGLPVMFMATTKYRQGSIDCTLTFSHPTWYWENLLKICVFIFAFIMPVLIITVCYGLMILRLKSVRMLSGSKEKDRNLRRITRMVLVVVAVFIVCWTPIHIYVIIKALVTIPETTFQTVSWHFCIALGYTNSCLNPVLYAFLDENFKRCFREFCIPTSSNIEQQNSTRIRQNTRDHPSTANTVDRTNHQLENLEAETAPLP

With `O=C(COCC1CCCN1S(=O)(=O)c1c(Cl)cc(Cl)cc1Cl)NC1CCC(C(c2ccccc2)N2CCCC2)CC1` (stereo not drawn) [Example 650, N-(4-(phenyl(pyrrolidin-1-yl)methyl)cyclohexyl)-2-((1-(2,4,6-trichlorophenylsulfonyl)pyrrolidin-2-yl)methoxy)acetamide], the inhibition at 10 µM in test [1] (Ca2+ FLIPR, CHO K1 hB1R cells) is 96%; in test [3] (Ca2+ FLIPR, CHO K1 rB1R cells) it was 99%. Further, the inhibition at 1 µM in test [2] was 92%.
Take `COc1cc(C)c(S(=O)(=O)N2CCCCC2COCC(=O)N2CCC(C(c3cccc(F)c3)N3CCN(C)CC3)CC2)c(C)c1` (stereo not drawn) [Example 800, 1-(4-((3-fluorophenyl)(4-methylpiperazin-1-yl)methyl)piperidin-1-yl)-2-((1-(4-methoxy-2,6-dimethylphenylsulfonyl)piperidin-2-yl)methoxy)ethanone]: the inhibition at 10 µM in test [1] (setting [4]) worked out at 108%; in test [3] (setting [4]) it was 97%. The inhibition at 1 µM in test [2] was determined as 7%.
For `COc1cc(C)c(S(=O)(=O)N2CCCC(OCC(=O)NCC3CCC(C(c4ccccc4)N4CCCC4)CC3)C2)c(C)c1` (stereo not drawn) [Example 648, 2-(1-(4-methoxy-2,6-dimethylphenylsulfonyl)piperidin-3-yloxy)-N-((4-(phenyl(pyrrolidin-1-yl)methyl)cyclohexyl)methyl)acetamide], the inhibition at 10 µM is 95% in test [1] (Ca2+ FLIPR, CHO K1 hB1R cells) and 98% in test [3] (Ca2+ FLIPR, CHO K1 rB1R cells). Besides, the inhibition at 1 µM in test [2] came to 95%.
For the compound `CN(CCOCC(=O)NC1CCC(C(c2ccccc2)N2CCCC2)CC1)S(=O)(=O)c1c(Cl)cc(C(F)(F)F)cc1Cl` (stereo not drawn) [Example 630, 2-(2-(2,6-dichloro-N-methyl-4-(trifluoromethyl)phenylsulfonamido)ethoxy)-N-(4-(phenyl(pyrrolidin-1-yl)methyl)cyclohexyl)acetamide], the inhibition at 10 µM in test [1] (Ca2+ FLIPR, CHO K1 hB1R cells) was 50%; in test [3] (Ca2+ FLIPR, CHO K1 rB1R cells), -11%. Moreover, in test [2], the inhibition at 1 µM is 72%.
The matching figures for `COc1cc(C)c(S(=O)(=O)N2CCC(OCC(=O)NC3CCC(C(c4ccccc4)N4CCCC4)CC3)C2)c(C)c1` (stereo not drawn) [Example 629, 2-(1-(4-methoxy-2,6-dimethylphenylsulfonyl)pyrrolidin-3-yloxy)-N-(4-(phenyl(pyrrolidin-1-yl)methyl)cyclohexyl)acetamide]: 96%, 67% and 37%.
The matching figures for `CN(CCOCC(=O)NC1CCC(C(CCc2ccccc2)N2CCOCC2)CC1)S(=O)(=O)c1c(Cl)cccc1Cl` (stereo not drawn) [Example 664, 2-(2-(2,6-dichloro-N-methylphenylsulfonamido)ethoxy)-N-(4-(1-morpholino-3-phenylpropyl)cyclohexyl)acetamide]: 70%, 11% and 5%.
In the case of `O=C(COCC1CCCCN1S(=O)(=O)c1c(Cl)cc(Cl)cc1Cl)NCC1CCC(C(c2ccccc2)N2CCOCC2)CC1` (stereo not drawn) [Example 712, N-((4-(morpholino(phenyl)methyl)cyclohexyl)methyl)-2-((1-(2,4,6-trichlorophenylsulfonyl)piperidin-2-yl)methoxy)acetamide], the inhibition at 10 µM in test [1] (Ca2+ FLIPR, CHO K1 hB1R cells) is 46%; in test [3] (Ca2+ FLIPR, CHO K1 rB1R cells), 100%. For the same compound, the inhibition at 1 µM in test [2] turned out to be 40%.
For `O=C(COCC1CCCN1S(=O)(=O)c1c(Cl)cc(Cl)cc1Cl)NCC1CCC(C(CCc2ccccc2)N2CCOCC2)CC1` (stereo not drawn) [Example 751, N-((4-(1-morpholino-3-phenylpropyl)cyclohexyl)methyl)-2-((1-(2,4,6-trichlorophenylsulfonyl)pyrrolidin-2-yl)methoxy)acetamide], the inhibition at 10 µM in test [1] (Ca2+ FLIPR, CHO K1 hB1R cells) came out at 45%; in test [3] (Ca2+ FLIPR, CHO K1 rB1R cells), 73%. In addition, the inhibition at 1 µM in test [2] amounted to 32%.
For `COc1cc(C)c(S(=O)(=O)N2CCCC2COCC(=O)NCC2CCC(C(c3ccccc3)N3CCCC3)CC2)c(C)c1` (stereo not drawn) [Example 649, 2-((1-(4-methoxy-2,6-dimethylphenylsulfonyl)pyrrolidin-2-yl)methoxy)-N-((4-(phenyl(pyrrolidin-1-yl)methyl)cyclohexyl)methyl)acetamide], the inhibition at 10 µM in test [1] (Ca2+ FLIPR, CHO K1 hB1R cells) came out at 105%; in test [3] (Ca2+ FLIPR, CHO K1 rB1R cells) it was 106%. Moreover, the inhibition at 1 µM in test [2] was determined as 67%.
Regarding `CN(CCOCC(=O)NC1CCC(C(CCc2ccccc2)N2CCCCC2)CC1)S(=O)(=O)c1c(Cl)cccc1Cl` (stereo not drawn) [Example 665, 2-(2-(2,6-dichloro-N-methylphenylsulfonamido)ethoxy)-N-(4-(3-phenyl-1-(piperidin-1-yl)propyl)cyclohexyl)acetamide], the inhibition at 10 µM was found to be 94% in test [1] (Ca2+ FLIPR, CHO K1 hB1R cells) and 28% in test [3] (Ca2+ FLIPR, CHO K1 rB1R cells). Moreover, the inhibition at 1 µM in test [2] came to 18%.
For the compound `CN(CCOCC(=O)NCC1CCC(C(c2ccccc2)N2CCCC2)CC1)S(=O)(=O)c1c(Cl)cc(Cl)cc1Cl` (stereo not drawn) [Example 626, N-((4-(phenyl(pyrrolidin-1-yl)methyl)cyclohexyl)methyl)-2-(2-(2,4,6-trichloro-N-methylphenylsulfonamido)ethoxy)acetamide], the inhibition at 10 µM in test [1] (Ca2+ FLIPR, CHO K1 hB1R cells) worked out at 105%; in test [3] (Ca2+ FLIPR, CHO K1 rB1R cells) it was 47%. For the same compound, the inhibition at 1 µM in test [2] is 71%.
As to `CN1CCN(C(c2ccc(F)cc2)C2CCN(C(=O)COCC3CCc4ccccc4N3S(=O)(=O)c3ccc(Cl)c(Cl)c3)CC2)CC1` (stereo not drawn) [Example 808, 2-((1-(3,4-dichlorophenylsulfonyl)-1,2,3,4-tetrahydroquinolin-2-yl)methoxy)-1-(4-((4-fluorophenyl)(4-methylpiperazin-1-yl)methyl)piperidin-1-yl)ethanone], the inhibition at 10 µM in test [1] (setting [4]) was 122%; in test [3] (setting [4]), 75%. In addition, in test [2], the inhibition at 1 µM worked out at 12%.
In the case of `CN(CCOCC(=O)NCC1CCC(C(c2ccccc2)N2CCOCC2)CC1)S(=O)(=O)c1c(Cl)cc(C(F)(F)F)cc1Cl` (stereo not drawn) [Example 727, 2-(2-(2,6-dichloro-N-methyl-4-(trifluoromethyl)phenylsulfonamido)ethoxy)-N-((4-(morpholino(phenyl)methyl)cyclohexyl)methyl)acetamide], the inhibition at 10 µM in test [1] (Ca2+ FLIPR, CHO K1 hB1R cells) worked out at 16%; in test [3] (Ca2+ FLIPR, CHO K1 rB1R cells), 29%. The inhibition at 1 µM in test [2] was 10%.
As to `CN(CCOCC(=O)NC1CCC(C(c2ccccc2)N2CCOCC2)CC1)S(=O)(=O)c1c(Cl)cccc1Cl` (stereo not drawn) [Example 683, 2-(2-(2,6-dichloro-N-methylphenylsulfonamido)ethoxy)-N-(4-(morpholino(phenyl)methyl)cyclohexyl)acetamide], the inhibition at 10 µM in test [1] (Ca2+ FLIPR, CHO K1 hB1R cells) was determined as 32%; in test [3] (Ca2+ FLIPR, CHO K1 rB1R cells), 48%. In addition, in test [2], the inhibition at 1 µM is 5%.
For `CN1CCN(C(c2ccccc2)C2CCC(NC(=O)COCCN(C)S(=O)(=O)c3c(Cl)cc(Cl)cc3Cl)CC2)CC1` (stereo not drawn) [Example 714, N-(4-((4-methylpiperazin-1-yl)(phenyl)methyl)cyclohexyl)-2-(2-(2,4,6-trichloro-N-methylphenylsulfonamido)ethoxy)acetamide], the inhibition at 10 µM turned out to be 104% in test [1] (Ca2+ FLIPR, CHO K1 hB1R cells) and 64% in test [3] (Ca2+ FLIPR, CHO K1 rB1R cells). Further, the inhibition at 1 µM in test [2] came to 52%.
